The NIST ThermoML archive (doi:10.1016/j.jct.2016.02.009)
± gives the expanded uncertainty stated by the source.

Experiment: molar heat capacity at constant pressure
Details: 101.33 kPa, Crystal 2, Small (less than 1 g) adiabatic calorimetry

Compound: CCCCCCCCCCCCCCn1cc[n+](C)c1.O=S(=O)([N-]S(=O)(=O)C(F)(F)F)C(F)(F)F
- molar heat capacity at constant pressure (4.89 K): 3.21 ± 0.09 J/K/mol
- molar heat capacity at constant pressure (5 K): 3.43 ± 0.11 J/K/mol
- molar heat capacity at constant pressure (5.1 K): 3.64 ± 0.1 J/K/mol
- molar heat capacity at constant pressure (5.39 K): 4.23 ± 0.12 J/K/mol
- molar heat capacity at constant pressure (5.69 K): 4.88 ± 0.13 J/K/mol
- molar heat capacity at constant pressure (6 K): 5.63 ± 0.15 J/K/mol
- molar heat capacity at constant pressure (6.34 K): 6.47 ± 0.17 J/K/mol
- molar heat capacity at constant pressure (6.73 K): 7.47 ± 0.19 J/K/mol
- molar heat capacity at constant pressure (7.11 K): 8.54 ± 0.22 J/K/mol
- molar heat capacity at constant pressure (7.5 K): 9.67 ± 0.24 J/K/mol
- molar heat capacity at constant pressure (7.9 K): 10.86 ± 0.27 J/K/mol
- molar heat capacity at constant pressure (8.3 K): 12.12 ± 0.3 J/K/mol
- molar heat capacity at constant pressure (8.7 K): 13.43 ± 0.33 J/K/mol
- molar heat capacity at constant pressure (9.11 K): 14.79 ± 0.36 J/K/mol
- molar heat capacity at constant pressure (9.52 K): 16.21 ± 0.39 J/K/mol
- molar heat capacity at constant pressure (9.93 K): 17.69 ± 0.42 J/K/mol
- molar heat capacity at constant pressure (10 K): 17.94 ± 0.35 J/K/mol
- molar heat capacity at constant pressure (10.45 K): 19.63 ± 0.31 J/K/mol
- molar heat capacity at constant pressure (11.1 K): 22.1 ± 0.35 J/K/mol
- molar heat capacity at constant pressure (11.75 K): 24.67 ± 0.38 J/K/mol
- molar heat capacity at constant pressure (12.39 K): 27.32 ± 0.42 J/K/mol
- molar heat capacity at constant pressure (13.04 K): 30.06 ± 0.45 J/K/mol
- molar heat capacity at constant pressure (13.7 K): 32.85 ± 0.49 J/K/mol
- molar heat capacity at constant pressure (14.36 K): 35.72 ± 0.52 J/K/mol
- molar heat capacity at constant pressure (15 K): 38.56 ± 0.54 J/K/mol
- molar heat capacity at constant pressure (15.02 K): 38.63 ± 0.56 J/K/mol
- molar heat capacity at constant pressure (15.8 K): 42.14 ± 0.6 J/K/mol
- molar heat capacity at constant pressure (16.7 K): 46.22 ± 0.65 J/K/mol
- molar heat capacity at constant pressure (17.61 K): 50.37 ± 0.7 J/K/mol
- molar heat capacity at constant pressure (18.51 K): 54.57 ± 0.75 J/K/mol
- molar heat capacity at constant pressure (19.42 K): 58.74 ± 0.79 J/K/mol
- molar heat capacity at constant pressure (20 K): 61.41 ± 0.6 J/K/mol
- molar heat capacity at constant pressure (20.33 K): 62.84 ± 0.6 J/K/mol
- molar heat capacity at constant pressure (21.54 K): 68.49 ± 0.64 J/K/mol
- molar heat capacity at constant pressure (23.07 K): 75.56 ± 0.67 J/K/mol
- molar heat capacity at constant pressure (24.61 K): 82.47 ± 0.7 J/K/mol
- molar heat capacity at constant pressure (25 K): 84.18 ± 0.7 J/K/mol
- molar heat capacity at constant pressure (26.14 K): 89.18 ± 0.72 J/K/mol
- molar heat capacity at constant pressure (27.68 K): 95.96 ± 0.73 J/K/mol
- molar heat capacity at constant pressure (29.23 K): 102.6 ± 0.7 J/K/mol
- molar heat capacity at constant pressure (30 K): 105.9 ± 0.6 J/K/mol
- molar heat capacity at constant pressure (30.94 K): 110.1 ± 0.6 J/K/mol
- molar heat capacity at constant pressure (32.82 K): 117.9 ± 0.7 J/K/mol
- molar heat capacity at constant pressure (34.72 K): 125.4 ± 0.7 J/K/mol
- molar heat capacity at constant pressure (35 K): 126.4 ± 0.7 J/K/mol
- molar heat capacity at constant pressure (36.61 K): 132.8 ± 0.8 J/K/mol
- molar heat capacity at constant pressure (38.5 K): 140.1 ± 0.8 J/K/mol
- molar heat capacity at constant pressure (40 K): 145.8 ± 0.8 J/K/mol
- molar heat capacity at constant pressure (40.39 K): 147.2 ± 0.8 J/K/mol
- molar heat capacity at constant pressure (42.38 K): 154.5 ± 0.9 J/K/mol
- molar heat capacity at constant pressure (44.49 K): 162.2 ± 0.9 J/K/mol
- molar heat capacity at constant pressure (45 K): 164.1 ± 1 J/K/mol
- molar heat capacity at constant pressure (46.6 K): 169.8 ± 1 J/K/mol
- molar heat capacity at constant pressure (48.71 K): 177.1 ± 1 J/K/mol
- molar heat capacity at constant pressure (50 K): 181.5 ± 1 J/K/mol
- molar heat capacity at constant pressure (50.83 K): 184.3 ± 1 J/K/mol
- molar heat capacity at constant pressure (52.96 K): 191.2 ± 1.1 J/K/mol
- molar heat capacity at constant pressure (55.08 K): 198 ± 1.1 J/K/mol
- molar heat capacity at constant pressure (57.2 K): 204.8 ± 1.1 J/K/mol
- molar heat capacity at constant pressure (59.33 K): 211.5 ± 1.2 J/K/mol
- molar heat capacity at constant pressure (60 K): 213.6 ± 1.2 J/K/mol
- molar heat capacity at constant pressure (61.45 K): 218 ± 1.2 J/K/mol
- molar heat capacity at constant pressure (63.59 K): 224.5 ± 1.2 J/K/mol
- molar heat capacity at constant pressure (65.72 K): 230.7 ± 1.3 J/K/mol
- molar heat capacity at constant pressure (67.86 K): 236.8 ± 1.3 J/K/mol
- molar heat capacity at constant pressure (70 K): 242.6 ± 1.4 J/K/mol
- molar heat capacity at constant pressure (70.01 K): 242.5 ± 1.3 J/K/mol
- molar heat capacity at constant pressure (72.16 K): 248.4 ± 1.4 J/K/mol
- molar heat capacity at constant pressure (74.3 K): 254.1 ± 1.4 J/K/mol
- molar heat capacity at constant pressure (76.46 K): 260.1 ± 1.4 J/K/mol
- molar heat capacity at constant pressure (78.61 K): 266.1 ± 1.5 J/K/mol
- molar heat capacity at constant pressure (80 K): 269.2 ± 1.5 J/K/mol
- molar heat capacity at constant pressure (80.77 K): 271.8 ± 1.5 J/K/mol
- molar heat capacity at constant pressure (81.2 K): 272.4 ± 1.5 J/K/mol
- molar heat capacity at constant pressure (82.94 K): 276.6 ± 1.5 J/K/mol
- molar heat capacity at constant pressure (83.19 K): 277.4 ± 1.5 J/K/mol
- molar heat capacity at constant pressure (85.13 K): 281.8 ± 1.6 J/K/mol
- molar heat capacity at constant pressure (85.17 K): 281.5 ± 1.6 J/K/mol
- molar heat capacity at constant pressure (87.16 K): 286.5 ± 1.6 J/K/mol
- molar heat capacity at constant pressure (89.15 K): 291.4 ± 1.6 J/K/mol
- molar heat capacity at constant pressure (90 K): 293.7 ± 1.5 J/K/mol
- molar heat capacity at constant pressure (91.14 K): 296.2 ± 1.5 J/K/mol
- molar heat capacity at constant pressure (93.13 K): 301 ± 1.6 J/K/mol
- molar heat capacity at constant pressure (95.13 K): 305.5 ± 1.6 J/K/mol
- molar heat capacity at constant pressure (97.13 K): 310.1 ± 1.6 J/K/mol
- molar heat capacity at constant pressure (99.14 K): 314.6 ± 1.6 J/K/mol
- molar heat capacity at constant pressure (100 K): 316.7 ± 1.7 J/K/mol
- molar heat capacity at constant pressure (101.15 K): 319.3 ± 1.7 J/K/mol
- molar heat capacity at constant pressure (103.16 K): 324 ± 1.7 J/K/mol
- molar heat capacity at constant pressure (105.16 K): 328.1 ± 1.7 J/K/mol
- molar heat capacity at constant pressure (107.17 K): 332.6 ± 1.7 J/K/mol
- molar heat capacity at constant pressure (109.18 K): 336.8 ± 1.7 J/K/mol
- molar heat capacity at constant pressure (110 K): 338.4 ± 1.8 J/K/mol
- molar heat capacity at constant pressure (111.2 K): 340.6 ± 1.8 J/K/mol
- molar heat capacity at constant pressure (113.23 K): 345 ± 1.8 J/K/mol
- molar heat capacity at constant pressure (115.25 K): 349.2 ± 1.8 J/K/mol
- molar heat capacity at constant pressure (117.27 K): 353.4 ± 1.8 J/K/mol
- molar heat capacity at constant pressure (119.3 K): 357.4 ± 1.8 J/K/mol
- molar heat capacity at constant pressure (120 K): 358.8 ± 1.8 J/K/mol
- molar heat capacity at constant pressure (121.32 K): 361.5 ± 1.9 J/K/mol
- molar heat capacity at constant pressure (123.35 K): 365.5 ± 1.9 J/K/mol
- molar heat capacity at constant pressure (124.9 K): 368.4 ± 1.9 J/K/mol
- molar heat capacity at constant pressure (125.83 K): 370.4 ± 1.9 J/K/mol
- molar heat capacity at constant pressure (127.42 K): 373.3 ± 1.9 J/K/mol
- molar heat capacity at constant pressure (128.64 K): 376 ± 1.9 J/K/mol
- molar heat capacity at constant pressure (129.89 K): 378.2 ± 1.9 J/K/mol
- molar heat capacity at constant pressure (130 K): 378.6 ± 1.9 J/K/mol
- molar heat capacity at constant pressure (131.38 K): 381.2 ± 2 J/K/mol
- molar heat capacity at constant pressure (132.35 K): 383 ± 2 J/K/mol
- molar heat capacity at constant pressure (134.13 K): 386.5 ± 2 J/K/mol
- molar heat capacity at constant pressure (134.81 K): 387.8 ± 2 J/K/mol
- molar heat capacity at constant pressure (136.88 K): 391.8 ± 2 J/K/mol
- molar heat capacity at constant pressure (137.28 K): 392.5 ± 2 J/K/mol
- molar heat capacity at constant pressure (139.62 K): 397 ± 2 J/K/mol
- molar heat capacity at constant pressure (139.75 K): 397.2 ± 2 J/K/mol
- molar heat capacity at constant pressure (140 K): 397.8 ± 2 J/K/mol
- molar heat capacity at constant pressure (142.22 K): 402.1 ± 2.1 J/K/mol
- molar heat capacity at constant pressure (142.37 K): 402.3 ± 2.1 J/K/mol
- molar heat capacity at constant pressure (144.69 K): 406.6 ± 2.1 J/K/mol
- molar heat capacity at constant pressure (145.12 K): 407.7 ± 2.1 J/K/mol
- molar heat capacity at constant pressure (147.16 K): 411.2 ± 2.1 J/K/mol
- molar heat capacity at constant pressure (147.86 K): 412.6 ± 2.1 J/K/mol
- molar heat capacity at constant pressure (149.63 K): 415.9 ± 2.1 J/K/mol
- molar heat capacity at constant pressure (150 K): 416.6 ± 2.2 J/K/mol
- molar heat capacity at constant pressure (150.61 K): 418 ± 2.1 J/K/mol
- molar heat capacity at constant pressure (152.1 K): 420.5 ± 2.1 J/K/mol
- molar heat capacity at constant pressure (153.36 K): 423.1 ± 2.2 J/K/mol
- molar heat capacity at constant pressure (154.57 K): 425.1 ± 2.2 J/K/mol
- molar heat capacity at constant pressure (156.12 K): 428.1 ± 2.2 J/K/mol
- molar heat capacity at constant pressure (157.05 K): 429.7 ± 2.2 J/K/mol
- molar heat capacity at constant pressure (158.87 K): 433.3 ± 2.2 J/K/mol
- molar heat capacity at constant pressure (159.52 K): 434.5 ± 2.2 J/K/mol
- molar heat capacity at constant pressure (160 K): 435.3 ± 2.2 J/K/mol
- molar heat capacity at constant pressure (161.63 K): 438.6 ± 2.2 J/K/mol
- molar heat capacity at constant pressure (161.99 K): 439.1 ± 2.2 J/K/mol
- molar heat capacity at constant pressure (164.38 K): 443.7 ± 2.3 J/K/mol
- molar heat capacity at constant pressure (164.46 K): 443.6 ± 2.3 J/K/mol
- molar heat capacity at constant pressure (166.93 K): 448.2 ± 2.3 J/K/mol
- molar heat capacity at constant pressure (167.13 K): 448.7 ± 2.3 J/K/mol
- molar heat capacity at constant pressure (169.4 K): 453 ± 2.3 J/K/mol
- molar heat capacity at constant pressure (169.88 K): 453.9 ± 2.3 J/K/mol
- molar heat capacity at constant pressure (170 K): 454.1 ± 2.3 J/K/mol
- molar heat capacity at constant pressure (171.87 K): 457.5 ± 2.3 J/K/mol
- molar heat capacity at constant pressure (172.63 K): 459.1 ± 2.3 J/K/mol
- molar heat capacity at constant pressure (174.33 K): 462.3 ± 2.4 J/K/mol
- molar heat capacity at constant pressure (175.38 K): 464.4 ± 2.4 J/K/mol
- molar heat capacity at constant pressure (176.79 K): 467 ± 2.4 J/K/mol
- molar heat capacity at constant pressure (178.12 K): 469.7 ± 2.4 J/K/mol
- molar heat capacity at constant pressure (179.25 K): 471.5 ± 2.4 J/K/mol
